Results published in patent publication US10328075B2, “Method of treatment and compounds for use therein” (Baker Heart and Diabetes Institute, priority 2015, dated 2019).
No end group written: not given here.

How the values were obtained:
[1] = tested on: myocardial I-R injury in C57BL/6 mice; assay: Myocardial I-R in mice: cardiac necrosis after 24 h reperfusion (infarct size, plasma cTnI); assay type: in vivo, mouse; conditions: for Cardioprotection: Infarct size: Table 9; for Cardioprotection: isolated cardio-myocytes in vitro & intact heart subjected to MI in vivo; for Reduction of infarct size / Effect on plasma cTnI levels: small molecules 50 mg/kg i.p., Ac2-26 1 mg/kg i.v.
Protocol: Male C57BL/6 mice were breed and housed in the AMREP Animal Centre and maintained under a 12 h light/dark cycle. After anaesthesia (i.p., ketamine 80 mg/kg, xylazine 20 mg/kg and atropine 1.2 mg/kg), mice were randomly assigned to 24 h, 48 h and 7 days reperfusion groups and underwent reversible left arterial descending (LAD) ligation as described (Gao XM, 2011; JMCC, 50; Gao XM, 2000, JMCC). Following sedation, mice were intubated and ventilated (Harvard apparatus, MA, USA) with room air mixed with oxygen (tidal volume 0.25 mL, 150 breath/min), and placed on a heating pad. A left thoractomy will be made via the ˜third intercostal space, where the beating heart was located.
The LAD was reversibly ligated using 7-0 silk suture with a slipknot enclosing two releasing rings. Regional ischaemia was confirmed by pale colour of the ligated area. Air was then evacuated from the chest, the cavity was closed and normal respiration was restored. After 40-60 min of ischaemia, blood flow through the left coronary artery was re-established by releasing the slipknot. Sham-operated mice underwent identical surgical procedures except the coronary arteries were not ligated. Three cohorts of mice were scheduled. Cohort 1 was subjected to 40 min ischaemic-24 h reperfusion for the assessment of cardiac necrosis. Cohort 2 was subjected to 60 min occlusion with 48 h reperfusion for the quantification of cardiac and systemic inflammation. The last cohort was subjected to 7 d reperfusion and early cardiac fibrosis was assessed.
Treatment with study drugs: Animals were randomly assigned to different groups and all treatments were administrated 5 min prior to reperfusion of the LAD. The peptide Ac2-26 (1 mg kg^−1) (Chemieliva, Chongqing, China) and its vehicle (10% dimethyl sulfoxide (DMSO) in saline) were intravenously (i.v.) injected via the tail vein. […] Mice then received drug or vehicle injections daily until the experimental endpoint. The two different vehicles groups reflect different study drug solubility and administration routes.
Assessment of cardiac necrosis: The optimal time point for assessment of cardiac necrosis is 24 h reperfusion after an ischaemic insult. Plasma levels of cTnI were determined using a commercially available, high-sensitivity rat cTnI ELISA kit (Life Diagnostic Inc., Pennsylvania, USA) as per the manufacturer's instructions. To evaluate the size of the infarction in relation to the area-at-risk (AAR), infarct size (IS) and LV size, 2,3,5-triphenyltetrazolium chloride (TTC) staining was performed. The LAD was tightly re-occluded in anaesthetised mice after 24 h of reperfusion and Evans blue dye (0.1 mL, 5%) was injected as a bolus into the LV. The heart was then excised and rinsed in cold saline to remove excess dye. The LV was isolated, frozen at −20° C. and then cut transversely into six to seven slices at 1.0 mm thickness. LV slices were incubated for 45 min with 1.5% TTC solution at 37° C. The presence of Evans blue indicated perfusion, whereas its absence indicated lack of perfusion to that region, whereas the brick red areas indicate viable myocardium, white or yellowish regions demarcate necrotic tissue. The slices were mounted between glass slides, and images were acquired digitally using […] microscope (Leica Wild M3B, Heerbrugg, Switzerland) coupled with digital camera (Nikon Cool-PIX4500, Tokyo, Japan). The images were analyzed using Image J analysis program (Version 1.45S, National Institute of Health, USA). The non-ischaemic zone (blue area), area-at-risk zone (AAR, red and white or yellow areas), infarct zone (white or yellow areas) and total LV were outlined and quantified blindly. Infarct size was calculated as percentage of infarct zone/risk zone.
Animal Surgery: Adult C57BL/6 mice were randomly assigned to myocardial ischemia-reperfusion (I-R) injury or sham in vivo. […]

[2] = Plasma levels and pharmacokinetics in mice; assay type: in vivo, mouse; conditions: for Tmax / half-life: mouse, in vivo, Table 9, mice
[3] = mice, 40 min ischaemia, 24 h reperfusion

Compound | Cardioprotection: Infarct size ([1]; mice) | Cardioprotection [1] | Effect on cardiac necrosis (cardioprotective action) 24 h post I-R ([1]; mice, 50 mg/kg i.p.) | Reduction of infarct size [1, 3] [%] | Reduction of infarct size ([1]; mice, 40 min ischaemia, 24 h reperfusion, listed as Cmpd17b) [%] | Effect on plasma cTnI levels ([1]; mice, 24 h reperfusion) | Tmax [2] [h] | half-life [2] [h] | Effect on infarct size (in words) ([1]; mice, 40 min ischaemia, 24 h reperfusion, 50 mg/kg i.p.) | Plasma level approximately 20 h after the final dose (in words) ([2]; mice subjected to 7 days reperfusion, 50 mg/kg/day i.p.)
COc1cccc(Cc2cc(C)nn(C(C)C(=O)Nc3ccc(Br)cc3)c2=O)c1 (centres unmarked) [BIDI-001, N-(4-bromophenyl)-2-[5-(3-methoxybenzyl)-3-methyl-6-oxo-6H-pyridazin-1-yl]-propionamide] | ↓↓ | conferred cardioprotection | reduces cardiac necrosis | ~34 | ~35 | significantly reduced | 0.5 | 7.6 | – | –
CC(C)C1C(NC(=O)Nc2ccc(Cl)cc2)C(=O)N(c2ccccc2)N1C (centres unmarked) [BIDI-002] | – | – | lacked cardioprotective actions | – | – | not seen | 2 | 3.8 | not | micromolar range
Cc1cc(Cc2cccnc2)c(=O)n(CC(=O)Nc2ccc(Cl)cc2)n1 [MIPS-0010396] | ↓↓ | confers cardioprotection | – | – | – | – | 1 | 11.7 | – | –
Ac2-26: Annexin-A1 N-terminal peptide, peptide ANX-A1 mimetic (Ac-AMVSEFLKQAWFIENEEQEYVQTVK; UniProt P04083 2-26, looked up, fragment) | – | – | – | ~25 | – | non-significant trend | – | – | – | –
